In patent publication US20050288307A1, “Anti-viral compounds” (priority 2002, published 2005):
Like-named read-outs stand apart in the source and are kept apart here.

Legend:
[1] = target: CDK1/Cyclin B (Homo sapiens, UniProt P06493); assay: CDK1/cyclin B kinase assay (GST-Rb phosphorylation);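 note: Enzyme: His-tagged CDK1/Cyclin B co-expressed in baculovirus-infected Sf9 insect cells, purified via metal-chelate chromatography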
Protocol: (§2) His-tagged CDK2/Cyclin E and CDK1/Cyclin B may be co-expressed and PKCα singularly expressed in Sf 9 insect cells infected with the appropriate baculovirus constructs. The cells are harvested two days after infection by low speed centrifugation and the proteins purified from the insect cell pellets by Metal-chelate chromatography. Briefly, the insect cell pellet is lysed in Buffer A (10 mM Tris-HCl, pH 8.0, 150 mM NaCl, 0.02% NP40 and 5 mM β-marcaptoethanol, 1 mM NaF. 1 mM Na3VO4 and Protease Inhibitors Coctail (Sigma) containing AEBSF, pepstatin A, E 64, bestatin, leupeptin) by sonication. The soluble fraction is cleared by centrifugation and loaded onto Ni-NTA-Agarose (Quiagen). Non bound proteins were washed off with 300 mM NaCl, 5-15 mM Imidazole in Buffer A and the bound proteins eluted with 250 mM Imidazole in Buffer A. The purified proteins are extensively dialyzed against Storage buffer (20 mM HEPES pH 7.4, 50 mM NaCl, 2 mM DTT, 1 mM EDTA, 1 mM EGTA, 0.02% NP40, 10% v/v Glycerol) aliquoted and stored at −70° C.

[2] = target: CDK7/cyclin H (Homo sapiens, UniProt P50613); assay: CDK7 assay (CTD peptide substrate); assay type: biochemical
Sequence of CDK7/cyclin H (P50613 whole entry): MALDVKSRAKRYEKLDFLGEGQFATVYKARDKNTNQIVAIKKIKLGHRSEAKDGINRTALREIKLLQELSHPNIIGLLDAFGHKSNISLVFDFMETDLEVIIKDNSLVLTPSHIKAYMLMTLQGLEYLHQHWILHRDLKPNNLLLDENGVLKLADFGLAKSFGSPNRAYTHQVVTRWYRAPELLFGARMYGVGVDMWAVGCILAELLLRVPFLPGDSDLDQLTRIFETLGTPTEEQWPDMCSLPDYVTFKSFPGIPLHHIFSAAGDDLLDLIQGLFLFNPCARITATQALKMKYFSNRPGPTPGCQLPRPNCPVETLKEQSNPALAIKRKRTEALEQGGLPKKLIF
Sequence of CDK7/cyclin H (P51946 whole entry partner): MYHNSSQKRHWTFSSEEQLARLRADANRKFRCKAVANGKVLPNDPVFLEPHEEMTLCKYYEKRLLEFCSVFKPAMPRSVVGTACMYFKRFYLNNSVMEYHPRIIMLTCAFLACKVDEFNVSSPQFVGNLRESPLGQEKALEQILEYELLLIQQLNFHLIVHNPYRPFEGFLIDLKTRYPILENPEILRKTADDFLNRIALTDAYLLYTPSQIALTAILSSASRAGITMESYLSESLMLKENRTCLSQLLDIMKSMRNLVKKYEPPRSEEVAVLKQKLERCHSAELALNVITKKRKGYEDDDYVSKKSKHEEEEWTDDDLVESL
Protocol: (§1) CTD peptide substrate (biotinyl-Ahx-(Tyr-Ser-Pro-Thr-Ser-Pro-Ser)4-NH2; 1-2 mg/mL) and recombinant human CDK7/cyclin H, CDK9/cyclin T1, or CDK9/cyclin K (0.5-2 μg) were incubated for 45 min at 30° C. in the presence of varying amounts of test compound in 20 mM MOPS pH 7.2, 25 mM β-glycerophosphate, 5 mM EGTA, 1 mM DTT, 1 mM sodium vanadate, 15 mM MgCl2, and 100 μM ATP (containing a trace amount of ^32PγATP) in a total volume of 25 μL in a 96-well microtiter plate. The reaction was stopped by placing the plate on ice for 2 min. Avidin (50 μg) was added to each well, and the plate was incubated at room temp for 30 min. The samples were transferred to a 96-well P81 filter plate, and washed (4×200 μL per well) with 75 mM phosphoric acid. Microscint 40 scintillation liquid (50 μL) was added to each well, and the amount of ^32P incorporation for each sample was measured using a Packard Topcount microplate scintillation counter.

[3] = target: T1, CDK2/Cyclin E (Homo sapiens, UniProt P24941); assay: CDK2/cyclin E kinase assay (GST-Rb phosphorylation); assay type: biochemical;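 note: enzyme source: His-tagged CDK2/cyclin E complex co-expressed recombinantly in Sf9 insect cells using baculovirus constructs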
T1 construct: His; made in house; host or cells: Sf9 insect cells (baculovirus)
Protocol: as §2

[4] = target: CDK9/cyclin T1 (Homo sapiens, UniProt P50750); assay: CDK9 assay (CTD peptide substrate); assay type: biochemical
Sequence of CDK9/cyclin T1 (P50750 whole entry): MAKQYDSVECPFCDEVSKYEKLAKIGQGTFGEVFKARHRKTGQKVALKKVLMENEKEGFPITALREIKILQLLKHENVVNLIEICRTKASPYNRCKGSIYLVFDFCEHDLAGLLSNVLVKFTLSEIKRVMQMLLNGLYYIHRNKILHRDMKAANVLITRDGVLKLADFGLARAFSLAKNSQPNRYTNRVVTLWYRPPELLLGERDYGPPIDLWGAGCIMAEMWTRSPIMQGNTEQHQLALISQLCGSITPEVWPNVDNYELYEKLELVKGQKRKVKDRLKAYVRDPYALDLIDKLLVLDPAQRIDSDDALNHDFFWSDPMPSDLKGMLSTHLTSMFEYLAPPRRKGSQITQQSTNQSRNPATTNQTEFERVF
Sequence of CDK9/cyclin T1 (O60563 whole entry partner): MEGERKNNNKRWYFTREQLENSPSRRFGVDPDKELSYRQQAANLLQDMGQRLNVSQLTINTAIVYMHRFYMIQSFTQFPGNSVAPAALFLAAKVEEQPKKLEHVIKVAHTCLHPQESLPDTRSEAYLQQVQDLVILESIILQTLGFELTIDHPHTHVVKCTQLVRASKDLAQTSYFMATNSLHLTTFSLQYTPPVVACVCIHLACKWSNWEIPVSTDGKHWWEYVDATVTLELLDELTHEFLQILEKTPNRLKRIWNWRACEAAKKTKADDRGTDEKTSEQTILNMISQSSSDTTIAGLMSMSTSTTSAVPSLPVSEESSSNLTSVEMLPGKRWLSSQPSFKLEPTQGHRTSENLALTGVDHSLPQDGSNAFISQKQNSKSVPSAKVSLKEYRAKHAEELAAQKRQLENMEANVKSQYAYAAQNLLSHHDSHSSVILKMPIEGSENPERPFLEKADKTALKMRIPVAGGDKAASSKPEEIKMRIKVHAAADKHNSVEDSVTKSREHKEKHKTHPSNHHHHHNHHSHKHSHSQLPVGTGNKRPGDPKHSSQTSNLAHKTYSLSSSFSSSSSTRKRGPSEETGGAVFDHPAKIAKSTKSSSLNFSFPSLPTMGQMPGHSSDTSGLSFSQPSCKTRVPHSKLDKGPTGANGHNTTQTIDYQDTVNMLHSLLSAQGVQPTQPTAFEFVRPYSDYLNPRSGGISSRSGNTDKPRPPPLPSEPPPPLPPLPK
Protocol: as §1

[5] = target: CDK4/Cyclin D1 (Homo sapiens, UniProt P11802); assay: CDK4/cyclin D1 kinase assay (GST-Rb phosphorylation); assay type: biochemical
Sequence of CDK4/Cyclin D1 (P11802 whole entry, species assumed): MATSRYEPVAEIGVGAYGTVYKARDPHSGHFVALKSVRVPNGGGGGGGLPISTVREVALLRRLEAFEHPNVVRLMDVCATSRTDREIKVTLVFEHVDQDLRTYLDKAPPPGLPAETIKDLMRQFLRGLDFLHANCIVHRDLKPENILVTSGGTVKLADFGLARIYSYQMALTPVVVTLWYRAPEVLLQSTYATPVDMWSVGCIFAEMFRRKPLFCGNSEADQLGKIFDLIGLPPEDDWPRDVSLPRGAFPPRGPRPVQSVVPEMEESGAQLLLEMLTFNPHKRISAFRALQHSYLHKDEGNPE
Sequence of CDK4/Cyclin D1 (P24385 whole entry partner, species assumed): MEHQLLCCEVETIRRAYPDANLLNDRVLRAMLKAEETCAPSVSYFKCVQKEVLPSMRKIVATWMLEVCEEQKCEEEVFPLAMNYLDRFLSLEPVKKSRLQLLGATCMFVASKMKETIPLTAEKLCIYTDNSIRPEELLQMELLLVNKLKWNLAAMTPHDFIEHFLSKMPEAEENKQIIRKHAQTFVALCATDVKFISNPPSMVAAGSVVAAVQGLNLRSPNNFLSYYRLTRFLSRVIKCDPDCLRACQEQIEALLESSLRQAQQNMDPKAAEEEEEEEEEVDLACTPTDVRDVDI

[6] = target: CDK2/cyclin A (Homo sapiens, UniProt P24941); assay: CDK2/cyclin A kinase assay; assay type: biochemical;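 note: Read-out is incorporated radioactivity retained on P81 filter plates and quantified by scintillation counting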
Protocol: Reactions were stopped on ice, followed by filtration through p81 filterplates (Whatman Polyfiltronics, Kent, UK). After washing 3 times with 75 mM orthophosphoric acid, plates were dried, scintillant added and incorporated radioactivity measured in a scintillation counter (TopCount, Packard Instruments, Pangboume, Berks, UK).

[7] = Compound cytotoxicity in PBMC assay plates (MTS cell viability); conditions: human, TC50 (concentration decreasing cell viability by 50%)
[8] = tested on: HIV-1; assay: Anti-viral cell-based assays; conditions: result in words
[9] = Table 3, read-out: Average IC50 CDK7 cyclin H
[10] = Table 3, read-out: Average IC50 CDK2 cyclin E1
[11] = Table 3, read-out: Average IC50 CDK9 cyclin T1
[12] = Table 3, read-out: Average IC50 CDK4 cyclin D1
[13] = Table 3, read-out: Average IC50 CDK2 cyclin A2
[14] = Table 4, read-out: Kinase Inhibition IC50 CDK7-cyclin H
[15] = Table 4, read-out: Kinase Inhibition IC50 CDK2-cyclin E
[16] = Table 4, read-out: Kinase Inhibition IC50 CDK9-cyclin T1
[17] = Table 4, read-out: Kinase Inhibition IC50 CDK4-cyclin D1
[18] = Table 4, read-out: Kinase Inhibition IC50 CDK2-cyclin A

Sequence of CDK1/Cyclin B (P06493 whole entry, species assumed): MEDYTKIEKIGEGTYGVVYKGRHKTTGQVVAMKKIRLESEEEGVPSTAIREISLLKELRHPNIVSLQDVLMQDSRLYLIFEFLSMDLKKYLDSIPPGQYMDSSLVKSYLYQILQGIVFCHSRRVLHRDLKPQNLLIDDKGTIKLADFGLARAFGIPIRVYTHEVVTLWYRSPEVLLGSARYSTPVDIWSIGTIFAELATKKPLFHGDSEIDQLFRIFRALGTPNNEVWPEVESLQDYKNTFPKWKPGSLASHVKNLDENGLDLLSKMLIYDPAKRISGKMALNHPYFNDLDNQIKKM
Sequence of CDK1/Cyclin B (P14635 whole entry partner, species assumed): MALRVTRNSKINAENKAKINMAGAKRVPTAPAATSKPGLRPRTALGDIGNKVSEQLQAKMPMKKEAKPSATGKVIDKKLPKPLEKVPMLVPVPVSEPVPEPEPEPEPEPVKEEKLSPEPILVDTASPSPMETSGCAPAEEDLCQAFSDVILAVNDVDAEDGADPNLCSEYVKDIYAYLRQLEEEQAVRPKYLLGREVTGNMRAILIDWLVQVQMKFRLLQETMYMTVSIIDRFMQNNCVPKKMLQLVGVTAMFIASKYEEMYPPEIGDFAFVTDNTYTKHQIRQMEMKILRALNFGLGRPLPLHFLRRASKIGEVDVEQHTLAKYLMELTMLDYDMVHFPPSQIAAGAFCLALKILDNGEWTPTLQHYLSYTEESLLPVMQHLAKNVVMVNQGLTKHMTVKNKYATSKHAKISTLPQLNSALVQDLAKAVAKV

Row | Structure (SMILES) | IC50 [1] [nM] | IC50 [2, 9] [nM] | IC50 [3, 10] [nM] | IC50 [4, 11] [nM] | IC50 [5, 12] [nM] | IC50 [6, 13] [nM] | CC50 at 7 days ([7]; HIV-1RoJo/PBMC) [nM] | CC50 at 7 days ([7]; HIV-1WeJo/PBMC) [nM] | anti-viral effectiveness as demonstrated by cell-based assays [8] | IC50 [2, 14] [nM] | IC50 [3, 15] [nM] | IC50 [4, 16] [nM] | IC50 [5, 17] [nM] | IC50 [6, 18] [nM]
1 | Cc1nc(C)c(-c2ccnc(Nc3cccc(C(F)(F)F)c3)n2)s1 [Compound 13, [4-(2,4-Dimethyl-thiazol-5-yl)-pyrimidin-2-yl]-(3-trifluoromethyl-phenyl)-amine] | > 100000 | > 100000 | 22000 | 85000 | > 100000 | > 100000 | – | – | – | – | – | – | – | –
2 | Cc1nc(C)c(-c2ccnc(Nc3cccc(N)c3)n2)s1 [Compound 34, N-[4-(2,4-Dimethyl-thiazol-5-yl)-pyrimidin-2-yl]-benzene-1,3-diamine] | 1500 | 5200 | 530 | 410 | 1700 | 530 | – | – | – | – | – | – | – | –
3 | CNc1nc(C)c(-c2ccnc(Nc3cccc(C(F)(F)F)c3)n2)s1 [Compound 75, [4-(4-Methyl-2-methylamino-thiazol-5-yl)-pyrimidin-2-yl]-(3-trifluoromethyl-phenyl)-amine] | > 100000 | 19000 | 770 | 8300 | > 100000 | > 100000 | – | – | – | – | – | – | – | –
4 | Cc1nc(C)c(-c2ccnc(Nc3ccc(N(C)C)cc3)n2)s1 [Compound 103, N,N-Dimethyl-N′-[4-(2,4-dimethyl-thiazol-5-yl)-pyrimidin-2-yl]-benzene-1,4-diamine] | 7300 | 11000 | – | 1800 | – | – | > 100000 | 800 | particularly effective anti-viral agents | – | – | – | – | –
5 | Cc1nc(N)sc1-c1ccnc(Nc2ccc(CCO)cc2)n1 [Compound 118, 2-{4-[4-(2-Amino-4-methyl-thiazol-5-yl)-pyrimidin-2-ylamino]-phenyl}-ethanol] | 1800 | 2800 | 390 | 800 | 820 | 420 | – | – | – | – | – | – | – | –
6 | COc1ccc(Nc2nccc(-c3sc(C)nc3C)n2)cc1N(C)C [Compound 130, N^1-[4-(2,4-Dimethyl-thiazol-5-yl)-pyrimidin-2-yl]-4-methoxy-N^3,N^3-dimethyl-benzene-1,3-diamine] | 470 | 4900 | 1100 | – | 4100 | 670 | – | – | – | – | – | – | – | –
7 | CCNc1nc(C)c(-c2ccnc(Nc3cccc([N+](=O)[O-])c3)n2)s1 [Compound 133, [4-(2-Ethylamino-4-methyl-thiazol-5-yl)-pyrimidin-2-yl]-(3-nitro-phenyl)-amine] | > 100000 | 390 | 88 | 210 | 4700 | 4200 | – | – | – | – | – | – | – | –
8 | Cc1nc(N(C)C)sc1-c1ccnc(Nc2cccc([N+](=O)[O-])c2)n1 [Compound 140, [4-(2-Dimethylamino-4-methyl-thiazol-5-yl)-pyrimidin-2-yl]-(3-nitro-phenyl)-amine] | 49000 | > 100000 | 480 | 7100 | 105000 | 1800 | – | – | – | – | – | – | – | –
9 | Cc1nc(C)c(-c2ccnc(Nc3ccc(S(=O)(=O)O)cc3)n2)s1 [Compound 148, 4-[4-(2,4-Dimethyl-thiazol-5-yl)-pyrimidin-2-ylamino]-benzenesulfonic acid] | 48 | 11000 | 28 | – | 3800 | 1 | – | – | – | – | – | – | – | –
10 | Cc1nc(N)sc1-c1ccnc(Nc2cccc(N)c2)n1 [Compound 149, N-[4-(2-Amino-4-methyl-thiazol-5-yl)-pyrimidin-2-yl]-benzene-1,3-diamine] | 710 | 990 | 250 | 59 | 500 | 520 | – | – | – | – | – | – | – | –
11 | Cc1nc(C)c(-c2ccnc(Nc3ccccc3)n2)s1 [Compound 150, [4-(2,4-Dimethyl-thiazol-5-yl)-pyrimidin-2-yl]-phenyl-amine] | 1500 | 11000 | 160 | – | 4900 | 410 | – | – | – | – | – | – | – | –
12 | Cc1c(-c2ccnc(Nc3cccc([N+](=O)[O-])c3)n2)sc(=O)n1C [Compound 153, 3,4-Dimethyl-5-[2-(3-nitro-phenylamino)-pyrimidin-4-yl]-3H-thiazol-2-one] | 3000 | – | – | – | – | – | – | – | – | 120 | 610 | 2.2 | 560 | 16
13 | Cc1c(-c2ccnc(Nc3ccc(Cl)cc3)n2)sc(=O)n1C [Compound 156, 5-[2-(4-Chloro-phenylamino)-pyrimidin-4-yl]-3,4-dimethyl-3H-thiazol-2-one] | 1400 | – | – | – | – | – | – | – | – | 8700 | – | – | – | 270
14 | Cc1c(-c2ccnc(Nc3cccc(O)c3)n2)sc(=O)n1C [Compound 158, 5-[2-(3-Hydroxy-phenylamino)-pyrimidin-4-yl]-3,4-dimethyl-3H-thiazol-2-one] | 370 | – | – | – | – | – | – | – | – | 1300 | 93 | – | 1000 | 86
15 | Cc1c(-c2ccnc(Nc3ccc(F)c([N+](=O)[O-])c3)n2)sc(=O)n1C [Compound 159, 5-[2-(4-Fluoro-3-nitro-phenylamino)-pyrimidin-4-yl]-3,4-dimethyl-3H-thiazol-2-one] | 820 | – | – | – | – | – | – | – | – | 1100 | 78 | – | – | 260
16 | Cc1cc(Nc2nccc(-c3sc(=O)n(C)c3C)n2)ccc1Cl [Compound 160, 5-[2-(4-Chloro-3-methyl-phenylamino)-pyrimidin-4-yl]-3,4-dimethyl-3H-thiazol-2-one] | 1800 | – | – | – | – | – | – | – | – | – | 1700 | 150 | 18000 | 1200
17 | Cc1ccc(Nc2nccc(-c3sc(=O)n(C)c3C)n2)cc1I [Compound 161, 5-[2-(3-Iodo-4-methyl-phenylamino)-pyrimidin-4-yl]-3,4-dimethyl-3H-thiazol-2-one] | 2100 | – | – | – | – | – | – | – | – | – | 3200 | 110 | 4000 | 710
18 | Cc1ccc(Nc2nccc(-c3sc(=O)n(C)c3C)n2)cc1[N+](=O)[O-] [Compound 163, 3,4-Dimethyl-5-[2-(4-methyl-3-nitro-phenylamino)-pyrimidin-4-yl]-3H-thiazol-2-one] | 96 | – | – | – | – | – | – | – | – | 1.2 | 36000 | 14 | 110 | 84
